Laboratory results published in patent US6563009B1, “Vasodilator cannabinoid analogs” (priority 1999, dated 2003).
Read-outs that look alike come from different tables or passages of the source.

Tests used:
vanilloid VRI receptors = vanilloid VRI receptors (Homo sapiens, UniProt Q8NER1); conditions: cited from earlier work
mesenteric arterial bed [1] = conditions: cited from earlier work; for vasodilation: rat isolated / perfused mesenteric arterial bed
[2] = 10 mg/kg i.v., anesthetized rats; prevented by 3 mg/kg SR141716A; cited from earlier work
[3] = cited from earlier work; for neurobehavioral effects: summary statement, no dose
[4] = 10 mg/kg i.v., anesthetized mice; prevented by 3 mg/kg SR141716A; cited from earlier work
CB1 receptors [5] = target: T1, CB1 receptors (Rattus norvegicus, UniProt P20272); conditions: cited from earlier work; for binding to CB1 receptors: summary statement, no concentration
T1 construct: from tissue; host or cells: rat brain P2 membranes

mesenteric arterial bed [6] = test: Vascular tone in isolated mesenteric arterial bed, with or without antagonist or endothelial denudation; set-up: species or system rat; conditions: 100 μg, species not given
Experimental: The methods used to analyze drug effects on vascular tone in the rat isolated mesenteric arterial bed and to achieve endothelial denudation by brief perfusion with distilled water have been described in detail elsewhere (Wagner et al.(1999), Hypertension 33 (Part II), 429-434). Because of the long lasting vasodilator effect of anandamide, R-methanandamide and abnormal cannabidiol, each preparation was tested with a single dose of the agonist, either in the absence or the presence of an antagonist.

[7] = Neurobehavioral tetrad (tail flick, locomotor activity, ring immobility, core body temperature); assay type: in vivo, mice
From the text: The protocol of the tail-flick test was as follows. The apparatus that was used for the tail-flick test contained a light source placed directly above a photocell connected to a timer. The mouse was held under a cloth by the technician conducting the experiment. The tail of the test animal was placed over the photocell and the light was turned on. When the test animal felt the discomfort of the heat from the light, it was freely able to remove its tail from the lamp. The photocell than sensed that the tail had moved and the timer was stopped. The typical nontreatment reaction time for an animal subjected to this test was about 2-4 seconds. This test involved a spinal reflex action similar to the removal of a finger from a hot stove. In treated animals, the latency to remove the tail lengthens in proportion to the analgesic potency of the drug. No animal was allowed to remain under the lamp for greater than 10 seconds to prevent any burns to the tail. No animal was subjected twice to this test.
Locomotor activity, ring immobility, and core body temperature parameters were measured as described in detail by Smith et al. (J. Pharmacol. Exp.Ther. (1994) 270; 219-227). Briefly, spontaneous locomotor activity is expressed as % inhibition vs. control. Mice were placed in individual activity cages 5 minutes post treatment, and interruption of the photocell beams (16 beams/chamber) were recorded for a 10 minute period using a Digiscan Animal Activity Monitor (Omnitech). Core temperature was measured by a rectal thermistor inserted to 25 mm, before and 30 minutes after administration of Abn-cbd. Catalepsy (ring immobility procedure) was expressed as % of total time spent motionless. Test compound can be injected into a tail vain i.v., and measurements are performed at 5 min (spontaneous motility), min (tail flick latency), 60 min (Core temperature) or 90 min (ring immobility) after drug injection.
Adult ICR mice (25-30 g) were from Harlan (Indianapolis, Ind.). Both male and female animals were used for these studies. Animals were housed four at a cage with standard mouse chow and water ad libitum, and were maintained at […] under a 12:12 light:dark cycle.

mesenteric vascular tone [8] = test: Drug effects on mesenteric vascular tone in perfused mouse mesenteric area (phenylephrine-established tone); set-up: species or system mice; conditions: for vasodilation (agonist effect): intra arterial bolus, dose-response, FIG. 1; for dose lower than the dose of Abn-cbd required to produce similar vasodilation: relative to Abn-cbd; for inhibition of 0-1848-induced vasodilation: FIG. 2(B), 2(C); for mesenteric vasodilation: injected intraarterially as a 1 mg bolus
Experimental: For measuring drug effects on mesenteric vascular tone in mice, sodium pentobarbital-anesthetized mice were laparotornized and a PE50 cannula was inserted distally into the abdominal aorta. Both renal and both femoral arteries were ligated, the heart removed, and the mesenteric area including the liver was perfused with oxygenated Krebs buffer at 36° C., using a peristaltic pump and a constant flow rate of 0.7 ml/min. Perfusion pressure monitored close to the inflow cannula was 25-30 mmHg, and was increased to 60-70 mmHg by the inclusion of 15 μM phenylephrine in the medium. Vasodilator effects were expressed as % relaxation of established tone, 100% being equal to the difference in perfusion pressure in the absence and presence of phenylephrine.
Perfusion pressure monitored near the inflow cannula should be 25-30 mmHg (1 mmHg[…]133 Pa) and is increased to 60-70 mmHg by the inclusion of […] phenylephrine in the medium. Vasodilation is expressed as percent relaxation of established tone, 100% being equal to the difference in perfusion pressure in the absence and presence of phenylephrine.
Evaluation of vasodilator response was performed as in Example 1 except that after addition of either the agonists 0-1602 (FIG. 2A) or 0-1848 (FIG. 2B-2C) as intra arterial bolus injections, the mesenteric preparation was perfused with either drug free buffer (solid circles) or buffer containing […].

CB1 receptors [9] = target: T1, CB1 receptors; test: 3H-CP-55,940 radioligand binding to P2 membranes from rat brain; conditions: concentration of 10 μM
[10] = Blood pressure in urethane-anaesthetized spontaneous hypertensive (SHR) rats; assay type: in vivo; conditions: 5 animals
mesenteric vascular tone [11] = test: Drug effects on mesenteric vascular tone in perfused mouse mesenteric area (phenylephrine-established tone); set-up: species or system mice; conditions: antagonist at 10 μM in perfusion buffer, FIG. 2(A)

T1 sequence (P20272 whole entry): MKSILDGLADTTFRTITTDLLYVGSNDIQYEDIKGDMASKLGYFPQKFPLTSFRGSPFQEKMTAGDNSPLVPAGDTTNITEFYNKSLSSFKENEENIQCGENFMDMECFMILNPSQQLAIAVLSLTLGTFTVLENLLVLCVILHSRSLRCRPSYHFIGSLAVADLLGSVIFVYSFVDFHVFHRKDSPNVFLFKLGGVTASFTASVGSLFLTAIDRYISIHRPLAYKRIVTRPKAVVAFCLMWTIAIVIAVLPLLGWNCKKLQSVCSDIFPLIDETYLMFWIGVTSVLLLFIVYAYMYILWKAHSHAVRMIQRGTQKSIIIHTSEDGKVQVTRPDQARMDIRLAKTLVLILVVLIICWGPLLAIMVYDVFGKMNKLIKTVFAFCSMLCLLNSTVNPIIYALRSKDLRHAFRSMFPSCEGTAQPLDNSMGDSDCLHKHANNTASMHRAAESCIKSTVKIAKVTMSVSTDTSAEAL
Sequence of vanilloid VRI receptors (Q8NER1 whole entry, the tested form may be a part): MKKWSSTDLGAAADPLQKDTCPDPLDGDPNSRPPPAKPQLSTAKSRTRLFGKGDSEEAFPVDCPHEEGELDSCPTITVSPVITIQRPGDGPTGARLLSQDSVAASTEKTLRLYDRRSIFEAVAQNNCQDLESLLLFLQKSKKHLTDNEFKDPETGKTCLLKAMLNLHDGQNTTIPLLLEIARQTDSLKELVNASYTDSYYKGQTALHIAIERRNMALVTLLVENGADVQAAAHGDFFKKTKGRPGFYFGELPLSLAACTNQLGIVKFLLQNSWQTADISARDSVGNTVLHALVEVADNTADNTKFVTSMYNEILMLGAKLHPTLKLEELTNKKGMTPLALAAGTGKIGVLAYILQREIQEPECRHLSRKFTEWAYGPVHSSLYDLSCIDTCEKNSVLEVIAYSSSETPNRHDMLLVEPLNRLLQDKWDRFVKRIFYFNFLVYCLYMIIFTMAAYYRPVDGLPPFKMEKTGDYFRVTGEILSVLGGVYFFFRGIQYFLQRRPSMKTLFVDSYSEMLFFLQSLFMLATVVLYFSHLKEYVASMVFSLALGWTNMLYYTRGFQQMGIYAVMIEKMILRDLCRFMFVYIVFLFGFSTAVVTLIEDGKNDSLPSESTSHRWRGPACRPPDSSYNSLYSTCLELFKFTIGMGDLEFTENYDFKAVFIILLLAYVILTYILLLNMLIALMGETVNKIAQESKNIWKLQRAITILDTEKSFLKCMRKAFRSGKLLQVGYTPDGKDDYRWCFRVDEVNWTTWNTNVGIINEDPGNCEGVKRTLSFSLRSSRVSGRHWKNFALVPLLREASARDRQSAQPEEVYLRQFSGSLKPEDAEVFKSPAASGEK

For `Oc1cc2c(cc1O)CN(C(=S)NCCc1ccc(Cl)cc1)CCC2` [capsazepine], the Kd (vanilloid VRI receptors) is given as 285 nM.

For `CCCCC/C=C\C/C=C\C/C=C\C/C=C\CCCC(=O)NCCO` [anandamide, arachidonyl ethanolamide], the vasodilation (mesenteric arterial bed [1]) is given as “elicits prolonged vasodilation”.

For `C=C(C)[C@@H]1CCC(C)=CC1c1c(O)cc(O)cc1CCCCC` (single isomer, unassigned; (-)) [Abn-cbd, (−)-4-(3-3,4-trans-p-menthadien-1,8)-yl-olivetol], the hypotension [2] is listed as “cause hypotension”, the marijuana-like neurobehavioral effects ([3]; doses up to 60 mg/kg, mice) is listed as “does not cause marijuana-like neurobehavioral effects” and the neurobehavioral effects [3] is listed as “does not elicit cannabinoid-like neurobehavioral effects”. The hypotension [4] was “cause hypotension”, the “vasodilator response in the presence of L-NAME and indomethacin” value (mesenteric arterial bed [1]; 100 μM L-NAME and 10 μM indomethacin in the perfusion buffer) was “remains unchanged” and the “vasodilation in the presence of capsazepine” value (mesenteric arterial bed [1]; bolus injection of 4 mg, 5 μM capsazepine) was “same long lasting vasodilation”. For the same compound, the vasodilation (mesenteric arterial bed [1]) was “caused vasodilation”, the “displacement of a potent known ligand from CB1 cannabinoid receptors” value (CB1 receptors [5]; concentrations up to 100 uM, rat brain plasma membrane preparation) was “failed to displace” and the “binding to CB1 receptors” value (CB1 receptors [5]) was “does not bind”.

For `CCCCCc1cc(O)c2c(c1)OC(C)(C)[C@@H]1CCC(C)=C[C@@H]21` [THC, Δ9-trahydrocannabinol], the vasodilation (mesenteric arterial bed [1]) is listed as “do not have a vasodilator effect”.

For `C=C(C)[C@@H]1CCC(C)=CC1c1c(C)cc(O)cc1O` (some centres unmarked) [0-1602], the “vasodilation after endothelial denudation” value (mesenteric arterial bed [6]; n=3, P<0.005) was 18%±2, the “vasodilation in the presence of SR141716A” value (mesenteric arterial bed [6]; n=3, P<0.005) was 15%±3 and the vasodilation (mesenteric arterial bed [6]; n=4) was 54%±2. The “response in the tetrad of standard neurobehavioral effects” value (from here on “response in the tetrad”) ([7]; dose not given) was “does not elicit a response”, the “vasodilation (agonist effect)” value (mesenteric vascular tone [8]) was “dose-dependent pronounced vasodilation” and the “dose lower than the dose of Abn-cbd required to produce similar vasodilation” value (mesenteric vascular tone [8]) was 80 ×.

In the case of `C=C(C)[C@@H]1CCC(C)=CC1c1c(O)c(I)c(C)c(I)c1O` (single isomer, unassigned; (-)) [0-1868, (−)-2-(3-3,4-trans-p-menthadien-(1,8)-4,6-diiodoorcinol], the “response in the tetrad” value ([7]; 30 μg/kg) is reported as “does not elicit a response”, the “binding to CB1 receptors” value (CB1 receptors [9]) is reported as “no significant binding” and the “inhibition of 0-1848-induced vasodilation” value (mesenteric vascular tone [8]; antagonist in perfusion buffer) is reported as “dose-dependent pronounced inhibition”. For the same compound, the mesenteric vasodilation (mesenteric vascular tone [8]) was “did not elicit mesenteric vasodilation”.

With `C=C(C)[C@@H]1CCC(C)=CC1c1ccc(O)cc1O` (some centres unmarked) [0-1848] the “hypotensive effect (reduction in mean blood pressure)” value [10] was “elicits a hypotensive effect”, the “response in the tetrad” value ([7]; dose not given) was “does not elicit a response” and the “vasodilation (agonist effect)” value (mesenteric vascular tone [8]) was “dose-dependent pronounced vasodilation”. The “dose lower than the dose of Abn-cbd required to produce similar vasodilation” value (mesenteric vascular tone [8]) was 80 ×.

For `Cc1c(C(=O)c2cccc3ccccc23)c2cccc3c2n1[C@H](CN1CCOCC1)CO3` [WIN 55212-2], the vasodilation (mesenteric arterial bed [1]) is given as “do not have a vasodilator effect”.

For `CCCCCCC(C)(C)c1cc(O)c2c(c1)OC(C)(C)[C@@H]1CC=C(CO)C[C@@H]21` [HU-210], the vasodilation (mesenteric arterial bed [1]) is given as “do not have a vasodilator effect”.

In the case of `C=C(C)[C@@H]1CCC(C)=C[C@H]1c1c(O)cc(CCCCC)cc1O` [cannabidiol], the neurobehavioral effects [3] is given as “devoid of neurobehavioral effects”, the “antagonism of the vasodilator effect of Abn-cbd” value (mesenteric arterial bed [1]; species not stated) is given as “able to antagonize” and the mesenteric vasodilation (mesenteric arterial bed [1]; species not stated) is given as “does not elicit mesenteric vasodilation”. The “binding to CB1 receptors” value (CB1 receptors [5]) was “does not bind”.

In the case of `C=C(C)[C@@H]1CCC(C)=CC1c1c(O)cc(C)cc1O` (single isomer, unassigned; (-)) [0-1821, (−)-2-(3-3,4-trans-p-menthadien-(1,8)-orcinol], the “inhibition of the vasodilatory effect of compound 0-1602” value (mesenteric vascular tone [11]) is reported as “almost complete inhibition”, the “response in the tetrad” value ([7]; 30 μg/kg) is reported as “does not elicit a response” and the “binding to CB1 receptors” value (CB1 receptors [9]) is reported as “no significant binding”. The “inhibition of 0-1602-induced vasodilation” value (mesenteric vascular tone [8]; FIG. 2(A), antagonist in perfusion buffer) was “dose-dependent pronounced inhibition” and the mesenteric vasodilation (mesenteric vascular tone [8]) was “did not elicit vasodilation”.

For `C=C(C)[C@@H]1CCC(C)=CC1c1c(O)cccc1O` (some centres unmarked) [0-1847], the “response in the tetrad” value ([7]; 30 μg/kg) was “does not elicit a response”, the “binding to CB1 receptors” value (CB1 receptors [9]) was “no significant binding” and the “inhibition of 0-1848-induced vasodilation” value (mesenteric vascular tone [8]; antagonist in perfusion buffer) was “dose-dependent pronounced inhibition”. The mesenteric vasodilation (mesenteric vascular tone [8]) was “did not elicit mesenteric vasodilation”.
